Measurements from patent publication US4987121A, “Erythropoietic factor” (Center for Innovative Technology, priority 1988, dated 1991).
Ends that are not written are not given here.

Legend:
peripheral blood BFU-E = peripheral blood BFU-E assay in the absence of T cells and macrophages; assay type: cell-based, human; conditions: for BFU-E/culture ± SEM: peripheral blood cells, T cells and macrophages removed
Protocol: The cultures contained peripheral blood derived cells instead of bone marrow cells. After Ficoll-Hypaque separation, preparations from peripheral blood were further incubated in plastic dishes twice for thirty minutes to remove macrophages. The majority of T cells were removed by rosetting with sheep red blood cells, available from the Lampire Corporation of Pipersville, Pa., and centrifugation. The remaining T-cells were removed by incubating the cell suspension with Leu-1 antibody, available from Becton-Dickenson, Inc. of Mountain View, Calif., and rabbit complement. Less than 0.3% of macrophages and T cells could be detected in the remaining cell suspension. The probabilities in Table 1 are as follows: *=p<0.025 and **=p<0.005. There were three observations per group. As shown by Table 1, the number of peripheral blood derived BFU-E increased three fold in the presence 0.32 nM of α-ANF[1-28] in cultures containing 250 mU/ml of Epo and less than 0.3% of T cells and macrophages.

[1] = system: erythroid precursors (BFU-E and CFU-E); assay: erythroid progenitor BFU-E and CFU-E assay (statements covering both progenitors); assay type: cell-based, human; conditions: for effect on the stimulatory effect of Epo on both BFU-E and CFU-E: ANF analog 0.32 nM + Epo 250 mU/ml; for potentiation of erythropoiesis versus concentration: with Epo
From the text: (§1) Utilization of cell culture techniques allowed for the detection of molecules other than Epo which act on erythropoietic precursor cells. […] The erythroid progenitor BFU-E and CFU-E assay was utilized for the in vitro studies by the following method:
(§2) (1) Collect bone marrow cells from normal human volunteers after obtaining informed consent.
(§3) (2) Suspend cells in α-medium containing 10% fetal calf serum.
(§4) (3) Separate by Ficoll-Hypaque gradient to obtain an enriched mononuclear cell population.
(§5) (4) Culture cells (5×10^4 per plate) in petri dishes using a methylcellulose technique (see, Iscove, J. Cell Physiol 83: 309, (1974)).
(§6) (5) Add Human Epo, available from the Toyoba Corp. of New York, N.Y., to the culture on day zero.
(§7) (6) Add ANF-like peptides on days zero, two, five, eight, and eleven.
(§8) In the absence of Epo, ANF has no effect on erythroid colony formation. In FIG. 1, the effects of α-ANF[1-28] alone and in conjunction with an added amount of Epo were studied. Human α-ANF[1-28] diluted in α-medium, obtained from the Peninsula Corporation, was added to the cultures every three days starting at day zero. Control cultures were supplemented with Phosphate Buffered Saline (PBS) alone. PBS is available from the GIBCO corporation of Grand Island, N.Y. Triplicate plates were incubated at 37° C. in a humidified atmosphere of 7% CO2 in air. On the eighth day, cell aggregates which contained more than seven erythroid cells were counted as CFU-E. On the fourteenth day, aggregates of forty cells or more were counted as BFU-E. Hemoglobinization of the cells was confirmed by using a Soret band and morphologically from stained smears. In FIG. 1, the number of observations is indicated in the bottom part of the bar. The standard estimates from mean (SEM) are indicated as error bars. Statistical significances were obtained by using Kruskal-Wallis Analysis of Variance (one way by ranks). Probabilities in FIGS. 1 and 2 are indicated by: 1*=p<0.05; 2*=p<0.01;3*=p<0.005; and 4*=p<0.001. […] The relative increase of Epo activity caused by the presence of ANF is the subject of this invention.
The numbers were determined using the lowest ANF concentration as a reference point in each group. There were six observations per group. […] The number values for BFU-E and CFU-E in a culture containing 0.25 U/ml Epo and 0.32 nM α-ANF[1-28] are different for FIGS. 1 and 2 because different human volunteer bone marrow donors were used for each study. The absolute numbers are not the focus of this invention, rather, the subject of this invention is the relative increase in the production of BFU-E and CFU-E caused by Epo in the presence of ANF.

BFU-E = assay: erythroid progenitor BFU-E assay, human bone marrow cells in methylcellulose culture; assay type: cell-based; conditions: for Potentiation of BFU-E(%): ANF analog 0.32 nM + Epo 250 mU/ml, relative to effect of α-ANF[1-28] (100%)
From the text: as §1, §2, §3, §4, §5, §6, §7, §8

CFU-E = assay: erythroid progenitor CFU-E assay, human bone marrow cells in methylcellulose culture; assay type: cell-based; conditions: for Potentiation of CFU-E(%): ANF analog 0.32 nM + Epo 250 mU/ml, relative to effect of α-ANF[1-28] (100%)
From the text: as §1, §2, §3, §4, §5, §6, §7, §8

[2] = in the presence of α-ANF[1-28] 0.32 nM and Epo 250 mU/ml

Substance | Potentiation of BFU-E(%) (BFU-E) | effect on the stimulatory effect of Epo on both BFU-E and CFU-E [1] | Potentiation of CFU-E(%) (CFU-E) | also measured
erythropoietin [Epo] |  |  |  | BFU-E/culture ± SEM (peripheral blood BFU-E; Experiment 1, Epo 250 mU/ml alone): 7.0 ± 0.9; BFU-E/culture ± SEM (peripheral blood BFU-E; Experiment 2, Epo 250 mU/ml alone): 14.0 ± 2.0; BFU-E and CFU-E yield ([1]; 2,000 mU/ml of Epo compared with 250 mU/ml of Epo, identical α-ANF[1-28] concentrations): higher; effect of Epo alone on erythroid precursors ([1]; Epo alone 250 mU/ml): stimulated both erythroid precursors
α-ANF [1-11] (SLRRSSCFGGR; Atrial natriuretic peptide; UniProt P01160 124-134, looked up, fragment) [ANF[1-11], ANF analog available from the Peninsula Corporation] | -1.5 ± 8.8% | not significant | 14.8 ± 4.6% | 
α-ANF dimer | 40.2 ± 26.7% | not significant | 25.4 ± 13.1% | 
α-ANF[1-28] (SLRRSSCFGGRMDRIGAQSGLGCNSFRY; not fully specified; ends and bridges not checked; UniProt P01160 124-151, looked up) [human atrial natriuretic factor peptide, obtained from the Peninsula Corporation] | 100 ± 24.9% | enhanced | 100 ± 39.2% | increase in number of peripheral blood derived BFU-E (peripheral blood BFU-E; 0.32 nM α-ANF[1-28], 250 mU/ml Epo, less than 0.3% of T cells and macrophages): three fold; BFU-E/culture ± SEM (peripheral blood BFU-E; Experiment 1, ANF 0.32nM + Epo 250 mU/ml): 22.7 ± 1.9; BFU-E/culture ± SEM (peripheral blood BFU-E; Experiment 2, ANF 0.32nM + Epo 250 mU/ml): 42.3 ± 6.8; increase in BFU-E (BFU-E; Epo 250 mU/ml plus α-ANF[1-28] 0.32 nM versus Epo alone (FIG. 1)): four-fold; actual numbers of BFU-E (BFU-E; [2]): 103±26; effect on erythroid precursors / erythroid colony formation in the absence of Epo ([1]; ANF alone, no Epo (0.32 nM in FIG. 1)): no effect; increase of BFU-E and CFU-E production ([1]; in the presence of Epo): up to four fold; potentiation of erythropoiesis versus concentration ([1]; α-ANF[1-28] concentrations above 0.96 nM): leveled off or even declined; potentiation of erythropoiesis versus concentration ([1]; α-ANF[1-28] increased from 0.032 nM to 0.96 nM): concentration dependent potentiation; increase in CFU-E (CFU-E; Epo 250 mU/ml plus α-ANF[1-28] 0.32 nM versus Epo alone): two-fold; actual numbers of CFU-E (CFU-E; [2]): 440±176
α-ANF[4-28] (RSSCFGGRMDRIGAQSGLGCNSFRY; ends and bridges not checked; cysteine pairing not given here; UniProt P01160 127-151, looked up, fragment) [ANF analog available from the Peninsula Corporation; a major circulatory form of ANF] | 74.8 ± 15.3% | enhanced | 208 ± 41.0% | 
α-ANF[5-28] (SSCFGGRMDRIGAQSGLGCNSFRY; ends and bridges not checked; cysteine pairing not given here; UniProt P01160 128-151, looked up, fragment) [ANF analog available from the Peninsula Corporation; a major circulatory form of ANF] | 98.5 ± 38.6% | enhanced | 143 ± 26.7% | 
